Reference: ChEMBL document CHEMBL1135808, “A new type of mixed anhydride and its applications to the synthesis of 7-substituted 8-chloro-5,5-dioxoimidazo[1,2-b][1,4,2]benzodithiazines with in vitro antitumor activity” (2002)

What was measured:
HCC 2998 = assay: In vitro growth inhibition against colon cancer HCC2998 cell line was reported.; assay type: functional; details: Homo sapiens
HOP-62 = assay: In vitro total growth inhibition against non-small-cell lung cancer HOP-62 cell lines was reported.; assay type: functional; details: Homo sapiens, read-out: Log TGI (converted)
MDA-MB-435 = assay: In vitro total growth inhibition against breast cancer MDA-MB-435 cell lines was reported.; details: Homo sapiens, read-out: Log TGI (converted)
HCT-116 [1] = assay: In vitro total growth inhibition against colon cancer HCT116 cell lines was reported.; assay type: functional; details: Homo sapiens, read-out: Log TGI (converted)
NCI-H23 = assay: In vitro total growth inhibition against non-small-cell lung cancer NCI-H23 cell lines was reported.; assay type: functional; details: Homo sapiens, read-out: Log TGI (converted)
SK-MEL-2 [2] = assay: In vitro total growth inhibition against melanoma SK-MEL-2 cell lines was reported.; assay type: functional; details: Homo sapiens, read-out: Log TGI (converted)
IGROV-1 [3] = assay: In vitro growth inhibition against ovarian cancer IGROV1 cell line was reported.; assay type: functional; details: Homo sapiens
OVCAR-3 = assay: In vitro total growth inhibition against ovarian cancer OVCAR-3 cell lines was reported.; assay type: functional; details: Homo sapiens, read-out: Log TGI (converted)
RXF 393 = assay: Log of molar concentration leading to 50% cell death against renal cancer RXF 393 cell line was reported; assay type: functional; details: Homo sapiens, read-out: Log LC50 (the source's name) (converted)
U-251 = assay: In vitro total growth inhibition against CNS cancer U251 cell lines was reported.; assay type: functional; details: Homo sapiens, read-out: Log TGI (converted)
SK-MEL-5 = assay: In vitro total growth inhibition against melanoma SK-MEL-5 cell lines was reported.; assay type: functional; details: Homo sapiens, read-out: Log TGI (converted)
SK-MEL-2 [4] = assay: Log of molar concentration leading to 50% cell death against melanoma SK-MEL-2 cell line was reported; assay type: functional; details: Homo sapiens, read-out: Log LC50 (the source's name) (converted)
NCI/ADR-RES = assay: In vitro growth inhibition against breast cancer NCI/ADR-RES cell line was reported.; assay type: functional; details: Homo sapiens
UACC-257 [5] = assay: In vitro total growth inhibition against melanoma UACC-257 cell lines was reported.; assay type: functional; details: Homo sapiens, read-out: Log TGI (converted)
SNB-19 = assay: In vitro growth inhibition against CNS cancer SNB-19 cell line was reported.; assay type: functional; details: Homo sapiens
PC-3 = assay: Log of molar concentration leading to 50% cell death against prostate cancer PC-3 cell line was reported; assay type: functional; details: Homo sapiens, read-out: Log LC50 (the source's name) (converted)
UACC-257 [6] = assay: In vitro total growth inhibition against melanoma UACC-257 cell line was reported.; assay type: functional; details: Homo sapiens
IGROV-1 [7] = assay: Log of molar concentration leading to 50% cell death against ovarian cancer IGROV1 cell line was reported; assay type: functional; details: Homo sapiens, read-out: Log LC50 (the source's name) (converted)
HCT-116 [8] = assay: In vitro growth inhibition against colon cancer HCT116 cell line was reported.; assay type: functional; details: Homo sapiens
SNB-75 = assay: In vitro growth inhibition against CNS cancer SNB-75 cell line was reported.; assay type: functional; details: Homo sapiens
RPMI-8226 = assay: In vitro total growth inhibition against leukemia […] cell lines was reported.; assay type: functional; details: Homo sapiens, read-out: Log TGI (converted)
DU-145 = assay: Log of molar concentration leading to 50% cell death against prostate cancer […] cell line was reported; assay type: functional; details: Homo sapiens, read-out: Log LC50 (the source's name) (converted)
UACC-62 = assay: In vitro growth inhibition against melanoma UACC-62 cell line was reported.; assay type: functional; details: Homo sapiens
MCF7 [9] = assay: In vitro total growth inhibition against breast cancer MCF 7 cell lines was reported.; assay type: functional; details: Homo sapiens, read-out: Log TGI (converted)
SF-539 = assay: In vitro total growth inhibition against CNS cancer SF-539 cell lines was reported.; assay type: functional; details: Homo sapiens, read-out: Log TGI (converted)
786-0 = assay: Log of molar concentration leading to 50% cell death against renal cancer […] cell line was reported; assay type: functional; details: Homo sapiens, read-out: Log LC50 (the source's name) (converted)
Homo sapiens = species: Homo sapiens; assay: In vitro total growth inhibition against non-small-cell lung cancer EKVX cell lines was reported.; assay type: functional; details: read-out: Log TGI (converted)
SF-295 = assay: In vitro growth inhibition against CNS cancer SF-295 cell line was reported.; assay type: functional; details: Homo sapiens
MCF7 [10] = assay: In vitro growth inhibition against breast cancer MCF 7 cell line was reported.; assay type: functional; details: Homo sapiens

Compound: O=C(Nc1nccs1)c1cc2c(cc1Cl)Sc1nccn1S2(=O)=O
- GI50 (HCC 2998): 15.8 µM
- TGI (HOP-62): 30.2 µM
- TGI (MDA-MB-435): 31.6 µM
- TGI (HCT-116 [1]): 29.5 µM
- TGI (NCI-H23): 33.9 µM
- TGI (SK-MEL-2 [2]): 33.1 µM
- GI50 (IGROV-1 [3]): 11.7 µM
- TGI (OVCAR-3): 28.2 µM
- CC50 (RXF 393): 83.2 µM
- TGI (U-251): 30.9 µM
- TGI (SK-MEL-5): 30.2 µM
- CC50 (SK-MEL-2 [4]): 63.1 µM
- GI50 (NCI/ADR-RES): 19.1 µM
- TGI (UACC-257 [5]): 26.9 µM
- GI50 (SNB-19): 19.1 µM
- CC50 (PC-3): 66.1 µM
- GI50 (UACC-257 [6]): 13.8 µM
- CC50 (IGROV-1 [7]): 75.9 µM
- GI50 (HCT-116 [8]): 16.2 µM
- GI50 (SNB-75): 18.6 µM
- TGI (RPMI-8226): 23.4 µM
- CC50 (DU-145): 27.5 µM
- GI50 (UACC-62): 14.5 µM
- TGI (MCF7 [9]): 20 µM
- TGI (SF-539): 37.2 µM
- CC50 (786-0): 53.7 µM
- TGI (Homo sapiens): 44.7 µM
- GI50 (SF-295): 18.2 µM
- GI50 (MCF7 [10]): 6.76 µM
